IC50, Activity and viability data for four compounds are collected here from ChEMBL document CHEMBL5120922, “Discovery, Optimization, and Evaluation of Potent and Selective PI3Kδ-γ Dual Inhibitors for the Treatment of B-cell Malignancies” (J Med Chem, 2022).

In test [1] the test system is DOHH-2. The experiment in a line: Antiproliferative activity against human DOHH-2 cells assessed as cell growth inhibition measured after 72 hrs by MTT assay. The format is functional, cell-based. Conditions: DOHH-2, 72 h. A general note: Tetrazolium assays rely on reduction of a dye to a coloured formazan, in cell work by metabolically active cells.
Test [2] concerns SU-DHL-6. Kind of test: Antiproliferative activity against human SU-DHL-6 cells assessed as cell growth inhibition measured after 72 hrs by MTT assay. The format is functional, cell-based. Conditions: SU-DHL-6, 72 h.
In another test the test system is SUD4. Kind of test: Antiproliferative activity against human SU-DHL-4 cells assessed as cell growth inhibition measured after 72 hrs by MTT assay. The conditions noted are these: SU-DHL-4, 72 h. The format is functional, cell-based.
In test [3] the target is Phosphatidylinositol 4,5-bisphosphate 3-kinase catalytic subunit gamma isoform (Homo sapiens, UniProt P48736). The experiment in a line: Inhibition of N-terminal His6-tagged recombinant full length human PI3Kgamma expressed in baculovirus infected Sf21 insect cells incubated for 30 mins by HTRF assay. For orientation: Time-resolved FRET reads energy transfer from a long-lived donor to a nearby acceptor.
Chain of Phosphatidylinositol 4,5-bisphosphate 3-kinase catalytic subunit gamma isoform (P48736 whole entry, canonical isoform): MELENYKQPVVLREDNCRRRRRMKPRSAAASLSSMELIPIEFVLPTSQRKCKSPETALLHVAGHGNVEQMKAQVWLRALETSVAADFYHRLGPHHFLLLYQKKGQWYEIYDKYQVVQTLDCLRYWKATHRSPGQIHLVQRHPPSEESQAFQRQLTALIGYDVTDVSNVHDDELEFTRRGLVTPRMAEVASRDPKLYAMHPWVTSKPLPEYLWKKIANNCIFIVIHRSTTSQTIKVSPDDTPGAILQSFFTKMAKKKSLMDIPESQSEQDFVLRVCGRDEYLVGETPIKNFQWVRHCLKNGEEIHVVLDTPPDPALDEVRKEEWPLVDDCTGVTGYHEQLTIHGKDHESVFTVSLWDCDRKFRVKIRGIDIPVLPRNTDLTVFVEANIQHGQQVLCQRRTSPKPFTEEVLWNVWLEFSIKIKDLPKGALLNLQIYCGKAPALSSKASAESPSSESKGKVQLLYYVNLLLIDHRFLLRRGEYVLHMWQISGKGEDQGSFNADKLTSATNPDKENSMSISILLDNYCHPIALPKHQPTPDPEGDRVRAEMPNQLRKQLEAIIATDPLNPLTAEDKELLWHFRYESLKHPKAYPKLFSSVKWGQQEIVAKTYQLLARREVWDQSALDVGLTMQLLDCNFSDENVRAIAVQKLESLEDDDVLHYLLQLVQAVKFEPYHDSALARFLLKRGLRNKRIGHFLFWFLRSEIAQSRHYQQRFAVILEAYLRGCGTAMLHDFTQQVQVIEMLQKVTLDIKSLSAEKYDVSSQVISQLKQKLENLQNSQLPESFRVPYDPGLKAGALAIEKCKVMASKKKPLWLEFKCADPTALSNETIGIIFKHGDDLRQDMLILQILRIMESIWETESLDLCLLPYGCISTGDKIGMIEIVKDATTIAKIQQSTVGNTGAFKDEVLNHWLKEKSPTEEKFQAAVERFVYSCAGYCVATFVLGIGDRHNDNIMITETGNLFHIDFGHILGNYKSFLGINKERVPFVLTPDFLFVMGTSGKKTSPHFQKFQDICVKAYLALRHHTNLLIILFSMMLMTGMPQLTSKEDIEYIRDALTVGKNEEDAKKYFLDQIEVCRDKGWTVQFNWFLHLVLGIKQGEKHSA

The target in test [4] is T1, Phosphatidylinositol 4,5-bisphosphate 3-kinase catalytic subunit delta isoform (Homo sapiens, UniProt O00329).
T1 sequence (O00329 whole entry): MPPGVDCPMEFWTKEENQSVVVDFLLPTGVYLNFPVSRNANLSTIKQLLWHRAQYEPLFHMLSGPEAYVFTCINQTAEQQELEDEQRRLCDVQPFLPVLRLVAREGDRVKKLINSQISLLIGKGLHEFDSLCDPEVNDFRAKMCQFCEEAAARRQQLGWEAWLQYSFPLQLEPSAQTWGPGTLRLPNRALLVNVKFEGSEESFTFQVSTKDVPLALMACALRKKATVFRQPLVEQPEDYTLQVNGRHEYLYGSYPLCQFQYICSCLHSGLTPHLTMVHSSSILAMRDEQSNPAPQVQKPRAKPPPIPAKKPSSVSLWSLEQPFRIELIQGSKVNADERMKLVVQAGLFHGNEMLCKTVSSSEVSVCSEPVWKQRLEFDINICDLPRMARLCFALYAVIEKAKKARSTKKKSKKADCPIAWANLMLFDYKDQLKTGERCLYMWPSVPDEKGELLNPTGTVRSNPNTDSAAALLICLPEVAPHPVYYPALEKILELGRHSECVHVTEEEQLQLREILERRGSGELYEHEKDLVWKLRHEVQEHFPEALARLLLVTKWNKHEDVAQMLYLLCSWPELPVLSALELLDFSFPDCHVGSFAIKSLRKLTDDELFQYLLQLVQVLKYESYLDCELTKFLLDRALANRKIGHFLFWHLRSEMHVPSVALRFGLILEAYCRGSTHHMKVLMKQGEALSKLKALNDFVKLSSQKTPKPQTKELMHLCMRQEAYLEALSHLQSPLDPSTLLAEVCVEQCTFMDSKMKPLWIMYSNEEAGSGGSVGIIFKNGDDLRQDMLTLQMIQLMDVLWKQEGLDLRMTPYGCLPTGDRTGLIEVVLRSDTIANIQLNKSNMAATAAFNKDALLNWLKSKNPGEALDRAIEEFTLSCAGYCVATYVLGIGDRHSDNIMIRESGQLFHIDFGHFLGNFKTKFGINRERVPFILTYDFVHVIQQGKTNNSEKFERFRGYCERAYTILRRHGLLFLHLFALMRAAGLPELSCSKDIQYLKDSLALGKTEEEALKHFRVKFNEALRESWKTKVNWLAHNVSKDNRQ
Kind of test: Inhibition of N-terminal His6-tagged recombinant full length human PI3Kdelta expressed in baculovirus infected Sf21 insect cells incubated for 30 mins by HTRF assay.

The target in test [5] is Phosphatidylinositol 4,5-bisphosphate 3-kinase catalytic subunit alpha isoform (Homo sapiens, UniProt P42336). Kind of test: Inhibition of N-terminal His6-tagged recombinant full length human PI3Kalpha expressed in baculovirus infected Sf21 insect cells incubated for 30 mins by HTRF assay.
Chain of Phosphatidylinositol 4,5-bisphosphate 3-kinase catalytic subunit alpha isoform (P42336 whole entry, canonical isoform): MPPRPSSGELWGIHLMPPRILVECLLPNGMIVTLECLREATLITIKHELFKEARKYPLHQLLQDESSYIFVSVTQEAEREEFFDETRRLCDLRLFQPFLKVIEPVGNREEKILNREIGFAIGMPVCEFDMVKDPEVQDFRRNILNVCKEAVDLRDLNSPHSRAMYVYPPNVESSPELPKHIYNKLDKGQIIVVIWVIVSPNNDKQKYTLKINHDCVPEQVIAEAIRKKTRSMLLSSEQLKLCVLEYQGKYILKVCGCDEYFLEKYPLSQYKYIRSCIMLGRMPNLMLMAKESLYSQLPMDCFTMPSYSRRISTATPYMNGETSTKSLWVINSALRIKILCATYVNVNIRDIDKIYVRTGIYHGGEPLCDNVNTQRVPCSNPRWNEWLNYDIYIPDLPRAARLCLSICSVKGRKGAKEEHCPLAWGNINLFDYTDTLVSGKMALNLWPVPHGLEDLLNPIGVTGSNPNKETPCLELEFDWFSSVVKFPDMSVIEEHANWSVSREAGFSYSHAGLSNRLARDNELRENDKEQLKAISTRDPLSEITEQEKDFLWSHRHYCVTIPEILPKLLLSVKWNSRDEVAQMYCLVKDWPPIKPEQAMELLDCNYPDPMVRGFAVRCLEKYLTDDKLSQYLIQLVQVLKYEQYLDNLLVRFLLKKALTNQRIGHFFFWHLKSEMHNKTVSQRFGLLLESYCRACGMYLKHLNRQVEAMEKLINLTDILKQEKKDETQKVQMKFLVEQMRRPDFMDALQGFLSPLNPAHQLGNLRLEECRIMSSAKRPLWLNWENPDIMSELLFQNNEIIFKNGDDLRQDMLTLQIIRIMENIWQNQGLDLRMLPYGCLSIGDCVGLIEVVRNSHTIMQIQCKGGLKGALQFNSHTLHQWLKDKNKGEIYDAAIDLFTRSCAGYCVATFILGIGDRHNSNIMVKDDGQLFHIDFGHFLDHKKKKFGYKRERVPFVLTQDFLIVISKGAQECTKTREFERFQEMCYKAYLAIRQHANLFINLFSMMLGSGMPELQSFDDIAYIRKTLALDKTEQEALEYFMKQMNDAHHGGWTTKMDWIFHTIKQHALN
For test [6], the target named is Phosphatidylinositol 4,5-bisphosphate 3-kinase catalytic subunit beta isoform (Homo sapiens, UniProt P42338). The experiment in a line: Inhibition of N-terminal His6-tagged recombinant full length human PI3Kbeta expressed in baculovirus infected Sf21 insect cells incubated for 30 mins by HTRF assay.
Chain of Phosphatidylinositol 4,5-bisphosphate 3-kinase catalytic subunit beta isoform (P42338 whole entry, canonical isoform): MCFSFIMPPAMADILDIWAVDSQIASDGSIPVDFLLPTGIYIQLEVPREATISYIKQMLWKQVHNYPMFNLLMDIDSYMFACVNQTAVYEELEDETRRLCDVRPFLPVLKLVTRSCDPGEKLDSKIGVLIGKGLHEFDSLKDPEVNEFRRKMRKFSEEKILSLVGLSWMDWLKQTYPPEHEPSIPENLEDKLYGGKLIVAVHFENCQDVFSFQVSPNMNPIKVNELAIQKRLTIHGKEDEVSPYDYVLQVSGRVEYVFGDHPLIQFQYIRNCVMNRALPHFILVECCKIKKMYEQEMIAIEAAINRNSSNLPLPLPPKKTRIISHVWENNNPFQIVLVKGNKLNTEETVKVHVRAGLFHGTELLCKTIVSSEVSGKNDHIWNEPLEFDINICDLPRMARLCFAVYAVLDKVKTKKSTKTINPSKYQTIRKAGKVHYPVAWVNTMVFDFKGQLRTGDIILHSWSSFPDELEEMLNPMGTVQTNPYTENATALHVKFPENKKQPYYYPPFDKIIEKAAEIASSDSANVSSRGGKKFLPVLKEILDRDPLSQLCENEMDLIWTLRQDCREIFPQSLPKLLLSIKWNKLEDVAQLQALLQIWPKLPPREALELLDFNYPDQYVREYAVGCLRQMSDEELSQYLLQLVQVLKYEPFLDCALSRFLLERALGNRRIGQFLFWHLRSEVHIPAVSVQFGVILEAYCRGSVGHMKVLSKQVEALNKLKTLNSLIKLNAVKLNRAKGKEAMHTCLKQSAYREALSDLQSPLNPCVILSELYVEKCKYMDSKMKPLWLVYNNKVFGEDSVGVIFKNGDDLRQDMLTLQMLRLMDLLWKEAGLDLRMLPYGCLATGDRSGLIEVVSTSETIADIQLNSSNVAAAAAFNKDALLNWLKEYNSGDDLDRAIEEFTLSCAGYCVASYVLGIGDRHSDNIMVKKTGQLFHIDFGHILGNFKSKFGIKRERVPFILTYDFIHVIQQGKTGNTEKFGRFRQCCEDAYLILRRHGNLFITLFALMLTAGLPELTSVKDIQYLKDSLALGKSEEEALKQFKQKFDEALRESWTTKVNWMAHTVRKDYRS
Test [7] relates to SU-DHL-6. Kind of test: Induction of cell cycle arrest in human SU-DHL-6 cells assessed as accumulation of cells at G0/G1 phase at 0.5 uM incubated for 24 hrs by PI staining based FACScan flow cytometry analysis (reference value: 55.61 %). The class given is functional.
Test [8] relates to SU-DHL-6. Kind of test: Induction of cell cycle arrest in human SU-DHL-6 cells assessed as accumulation of cells at S phase at 0.5 uM incubated for 24 hrs by PI staining based FACScan flow cytometry analysis (reference value: 24.18 %). The format is functional. A general note: A flow cytometer gives signals particle by particle.
In test [9] the test system is SU-DHL-6. Kind of test: Induction of cell cycle arrest in human SU-DHL-6 cells assessed as accumulation of cells at G2/M phase at 0.5 uM incubated for 24 hrs by PI staining based FACScan flow cytometry analysis (reference value: 20.21 %). The format is functional.
The test system of test [10] is DOHH-2. Kind of test: Induction of cell cycle arrest in human DOHH-2 cells assessed as accumulation of cells at G0/G1 phase at 1 uM incubated for 24 hrs by PI staining based flow cytometry analysis (reference value: 23.47 %). The class given is functional.
Test [11] has as its system DOHH-2. Kind of test: Induction of cell cycle arrest in human DOHH-2 cells assessed as accumulation of cells at S phase at 1 uM incubated for 24 hrs by PI staining based flow cytometry analysis (reference value: 55.11 %). The format is functional.
In test [12] the test system is DOHH-2. The experiment in a line: Induction of cell cycle arrest in human DOHH-2 cells assessed as accumulation of cells at G2/M phase at 1 uM incubated for 24 hrs by PI staining based flow cytometry analysis (reference value: 21.42 %). The format is functional.
Test [13] deals with SU-DHL-6. Kind of test: Induction of apoptosis in human SU-DHL-6 cells assessed as viable cells at 1.5 uM incubated for 48 hrs by annexin V-FITC and PI staining based flow cytometry analysis (reference value: 87.0 %). The format is functional. Conditions: read-out: Activity.
Test [14] relates to SU-DHL-6. Kind of test: Induction of apoptosis in human SU-DHL-6 cells assessed as early apoptotic cells at 1.5 uM incubated for 48 hrs by annexin V-FITC and PI staining based flow cytometry analysis (reference value: 8.81 %). The class given is functional.
For test [15], the system named is SU-DHL-6. Kind of test: Induction of apoptosis in human SU-DHL-6 cells assessed as late apoptotic cells at 1.5 uM incubated for 48 hrs by annexin V-FITC and PI staining based flow cytometry analysis (reference value: 3.88 %). The format is functional.
For test [16], the system named is SU-DHL-6. Kind of test: Induction of apoptosis in human SU-DHL-6 cells assessed as necrotic cells at 1.5 uM incubated for 48 hrs by annexin V-FITC and PI staining based flow cytometry analysis (reference value: 0.32%). The format is functional.
Test [17] deals with DOHH-2. Kind of test: Induction of apoptosis in human DOHH-2 cells assessed as viable cells at 1 uM incubated for 48 hrs by annexin V-FITC and PI staining based flow cytometry analysis (reference value: 95.4 %). The class given is functional. The conditions noted are these: read-out: Activity.
The subject of test [18] is DOHH-2. The experiment in a line: Induction of apoptosis in human DOHH-2 cells assessed as early apoptotic cells at 1 uM incubated for 48 hrs by annexin V-FITC and PI staining based flow cytometry analysis (reference value: 2.09 %). The class given is functional.
Test [19] deals with DOHH-2. Kind of test: Induction of apoptosis in human DOHH-2 cells assessed as late apoptotic cells at 1 uM incubated for 48 hrs by annexin V-FITC and PI staining based flow cytometry analysis (reference value: 2.20 %). The format is functional.
Test [20] relates to DOHH-2. Kind of test: Induction of apoptosis in human DOHH-2 cells assessed as necrotic cells at 1 uM incubated for 48 hrs by annexin V-FITC and PI staining based flow cytometry analysis (Rvb =0.29 %). The format is functional.

pIC50: −log10 of the molar value.

Consider `N#Cc1c(N)nc(N)nc1N1[C@H](c2nc3cccc(F)c3c(=O)n2-c2cccnc2)C[C@@H]2CCCC[C@@H]21`, for which the pIC50 is 5.59 in the test with DOHH-2 [1]; 5.96 with SU-DHL-6 [2]; 5.95 with SUD4; 3.44 in [3]; 4.38 in test [4]; 2.51 in [5]. Besides, the pIC50 in test [6] is 2.81.
Regarding `COc1cncc(-c2cccc3nc([C@@H]4CC[C@H](C)N4c4nc(N)nc(N)c4C#N)n(-c4cccc(F)c4)c(=O)c23)c1`, the pIC50 was 6.28 in the test on DOHH-2 [1]; 6.96 in the test on SU-DHL-6 [2]; 6.37 in the test with SUD4; 5.05 in test [3]; 6.22 in test [4]; 4.66 in test [5]. Further, the pIC50 in test [6] was 3.37.
`C[C@H]1CC[C@@H](c2nc3cccc(Cl)c3c(=O)n2-c2cccc(F)c2)N1c1nc(N)nc(N)c1C#N`: the pIC50 in the test with DOHH-2 [1] was 6.30; in the test with SU-DHL-6 [2], 6.72; with SUD4, 7.05; in [3], 4.77; in test [4] it was 5.70; in [5], 3.59. The pIC50 in test [6] is 3.39.
With `C=CC(=O)N1CCC[C@@H](n2nc(-c3ccc(Oc4ccccc4)cc3)c3c(N)ncnc32)C1` [IBRUTINIB], the Activity with SU-DHL-6 [7] is 58.11%; with SU-DHL-6 [8] it was 29.85%; with SU-DHL-6 [9], 12.04%; in the test with DOHH-2 [10] it was 46.69%; in the test on DOHH-2 [11] it was 40.49%; in the test with DOHH-2 [12], 13.92%. Further, the Activity with SU-DHL-6 [14] came to 9.9%; with SU-DHL-6 [15], 4.62%; in the test on SU-DHL-6 [16], 0.15%; in the test with DOHH-2 [18] it was 8.69%; in the test on DOHH-2 [19], 10.7%; with DOHH-2 [20], 0.7%. Also, the viability at 1.5 µM with SU-DHL-6 [13] is 86.1%. In the test with DOHH-2 [17], the viability at 1 µM stood at 79.9%.

One may read the pIC50 as the negative decadic logarithm of the IC50, by convention in mol/L.
